Each molecule was assayed against T1, TRPC5 (Homo sapiens, UniProt Q9UL62) (assay: TRPC5 Fluorescence Assay - FLIPR format (HEK-TREx hTRPC5, Riluzole stimulation)). Details: Table 9, read-out: hTRPCS-FLIPR IC50.
T1 construct: expressed in transfected cells; host or cells: HEK 293
T1 sequence (Q9UL62 1-973): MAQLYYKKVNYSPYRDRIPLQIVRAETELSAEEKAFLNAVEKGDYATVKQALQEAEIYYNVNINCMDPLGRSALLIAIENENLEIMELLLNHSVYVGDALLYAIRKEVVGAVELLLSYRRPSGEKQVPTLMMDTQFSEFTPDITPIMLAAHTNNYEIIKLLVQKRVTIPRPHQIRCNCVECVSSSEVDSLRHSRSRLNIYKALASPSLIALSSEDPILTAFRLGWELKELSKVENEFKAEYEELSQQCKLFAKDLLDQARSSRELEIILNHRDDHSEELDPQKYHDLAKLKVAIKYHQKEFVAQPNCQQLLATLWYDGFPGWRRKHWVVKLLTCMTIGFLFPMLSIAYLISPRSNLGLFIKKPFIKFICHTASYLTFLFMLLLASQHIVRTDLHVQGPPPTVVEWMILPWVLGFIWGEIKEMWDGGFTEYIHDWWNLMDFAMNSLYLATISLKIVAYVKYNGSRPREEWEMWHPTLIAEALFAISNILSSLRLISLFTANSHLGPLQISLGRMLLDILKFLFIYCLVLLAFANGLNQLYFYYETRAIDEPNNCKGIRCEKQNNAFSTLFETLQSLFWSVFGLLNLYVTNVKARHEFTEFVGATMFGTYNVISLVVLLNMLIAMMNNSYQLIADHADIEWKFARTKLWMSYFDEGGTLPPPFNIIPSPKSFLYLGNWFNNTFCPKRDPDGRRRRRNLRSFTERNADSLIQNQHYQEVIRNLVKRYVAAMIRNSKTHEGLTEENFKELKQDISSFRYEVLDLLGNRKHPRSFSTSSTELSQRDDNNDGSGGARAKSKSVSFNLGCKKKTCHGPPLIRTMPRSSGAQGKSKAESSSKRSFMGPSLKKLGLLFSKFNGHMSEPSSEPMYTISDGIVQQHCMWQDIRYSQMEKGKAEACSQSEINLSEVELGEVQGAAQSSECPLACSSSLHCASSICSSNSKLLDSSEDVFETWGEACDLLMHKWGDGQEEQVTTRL
Format: cell-based
In short: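 Tetracycline-induced HEK-TREx hTRPC5 cells loaded with Fluo-4 AM in EBSS were preincubated 5 min with compound (final 30 μM to 0.0001 μM, 0.3% DMSO), then stimulated with 30 μM Riluzole. Peak fluorescence over 5 min gave % inhibition, normalised to a 1 μM reference inhibitor.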

IC50, 0.01 to 1000 nM:
C[C@@H](c1ccccc1C(F)(F)F)N1CCN(c2cn[nH]c(=O)c2Cl)CC1=O [drawing 1044]
C[C@@H](c1ccc(F)cc1C(F)(F)F)N1CCN(c2cn[nH]c(=O)c2Cl)CC1=O [drawing 1049]
C[C@H](c1ccc(F)cc1C(F)(F)F)N1C[C@@H](C)N(c2cn[nH]c(=O)c2Cl)CC1=O [drawing 1048]

Same assay, conditions: Table 10, read-out: TRPCS-FLIPR IC50

IC50, 0.01 to 1000 nM:
CCc1ncccc1N(C)c1ncc2c(n1)CN(c1cn[nH]c(=O)c1Cl)C2 [drawing 1154]
C[C@@H](c1ccc(F)cc1C(F)F)n1nnc2c1CCN(c1cn[nH]c(=O)c1Cl)C2 [drawing 1107]
C[C@H](c1ccc(F)cc1C(F)(F)F)n1nnc2c1CCN(c1cn[nH]c(=O)c1Cl)[C@H]2C [drawing 1092]
CCS(=O)(=O)c1nc2c(n1Cc1ccccc1C(F)(F)F)CCN(c1cn[nH]c(=O)c1Cl)C2 [drawing 1079]
COCc1ncccc1Cn1cnc2c1CCN(c1cn[nH]c(=O)c1Cl)C2 [drawing 1065]
[2H]c1nc2c(n1Cc1ccccc1C(F)(F)F)CCN(c1cn[nH]c(=O)c1Cl)C2
CNC(=O)c1nn(Cc2ccc(F)cc2C(F)F)c2c1CN(c1cn[nH]c(=O)c1Cl)CC2 [drawing 1117]
COCc1ccccc1Cn1cnc2c1CCN(c1cn[nH]c(=O)c1Cl)C2 [drawing 1053]
C[C@H](c1ccc(F)cc1C(F)F)n1nc(C(N)=O)c2c1CCN(c1cn[nH]c(=O)c1Cl)C2
CNC(=O)c1nc2c(n1Cc1ccccc1C(F)(F)F)CCN(c1cn[nH]c(=O)c1Cl)C2 [drawing 1134]
CNC(=O)c1nn([C@H](C)c2ccccc2C(F)F)c2c1CN(c1cn[nH]c(=O)c1Cl)CC2 [drawing 1113]
CS(=O)(=O)c1nc2c(n1Cc1ccccc1C(F)(F)F)CCN(c1cn[nH]c(=O)c1Cl)C2 [drawing 1142]
C[C@H](c1ccccc1C(F)F)n1nnc2c1CCN(c1cn[nH]c(=O)c1Cl)C2 [drawing 1100]
COC[C@H](c1ccccc1C(F)(F)F)n1cnc2c1CCN(c1cn[nH]c(=O)c1Cl)C2 [drawing 1120]
O=c1[nH]ncc(N2CCc3c(ncn3Cc3ccc(F)cc3Cl)C2)c1Cl [drawing 1136]
C[C@@H](c1ccccc1C(F)F)n1nnc2c1CCN(c1cn[nH]c(=O)c1Cl)C2 [drawing 1106]
C[C@@H](c1cccnc1CC(F)F)n1nnc2c1CCN(c1cn[nH]c(=O)c1Cl)C2 [drawing 1125]
CN(c1ncc2c(n1)CN(c1cn[nH]c(=O)c1Cl)C2)c1ccc(F)cc1Cl [drawing 1144]
C[C@@H]1Cc2c(nnn2[C@@H](C)c2ccc(F)cc2C(F)(F)F)CN1c1cn[nH]c(=O)c1Cl [drawing 1085]
O=c1[nH]ncc(N2CCc3c(Cc4ccc(F)cc4C(F)(F)F)n[nH]c3C2)c1Cl [drawing 1153]
C[C@H](c1ccccc1Cl)n1nnc2c1CCN(c1cn[nH]c(=O)c1Cl)C2 [drawing 1133]
O=c1[nH]ncc(N2CCc3c(nnn3Cc3ccc(F)cc3CC(F)(F)F)C2)c1Cl [drawing 1131]
C[C@@H]1Cc2c(c(C(N)=O)nn2Cc2ccccc2C(F)(F)F)CN1c1cn[nH]c(=O)c1Cl [drawing 1118]
C[C@@H](c1ccccc1Cl)n1nnc2c1CCN(c1cn[nH]c(=O)c1Cl)C2 [drawing 1140]
C[C@H](c1ccccc1C(F)(F)F)n1nnc2c1CCN(c1cn[nH]c(=O)c1Cl)[C@H]2C [drawing 1078]
NC(=O)c1nc2c(n1Cc1ccccc1C(F)(F)F)CCN(c1cn[nH]c(=O)c1Cl)C2 [drawing 1135]
CCN(c1ncc2c(n1)CN(c1cn[nH]c(=O)c1Cl)C2)c1ccccc1Cl [drawing 1148]
CC(c1ccc(F)cc1C(F)F)n1nc(C(N)=O)c2c1CCN(c1cn[nH]c(=O)c1Cl)C2 (centres unmarked) [drawing 1114]
O=c1[nH]ncc(N2CCc3c(ncn3Cc3ccccc3Cl)C2)c1Cl [drawing 1139]
C[C@@H]1Cc2c(nnn2[C@@H](C)c2ccccc2C(F)(F)F)CN1c1cn[nH]c(=O)c1Cl [drawing 1071]
O=c1[nH]ncc(N2CCc3c(c(=O)[nH]n3Cc3ccccc3C(F)(F)F)C2)c1Cl [drawing 1081]
C[C@H](c1ccccc1C(F)(F)F)n1nc(C(N)=O)c2c1CCN(c1cn[nH]c(=O)c1Cl)C2 [drawing 1123]
